The nature of the data set: gradient 5% acetonitrile 3 min, to 50% in 2 min, to 85% in 15 min, held 3 min, 100 µL/min. The settings on record: column: Zorbax Extend-C18 2.1 x 50 mm; eluents: water / acetonitrile, 0.1% formic acid. The method in brief:
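Retention time was recorded from adduct peaks, which were picked computationally and each inspected manually. Pure standards ran in mixtures of ~100 molecules on HPLC coupled to a quadrupole time-of-flight mass spectrometer, in positive and negative ionization mode, through a Zorbax Extend-C18 column (2.1 × 50 mm, 1.8 μm) at 100 μL/min. Eluents were water and acetonitrile, each with 0.1% formic acid.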
With `O=C1CCCc2cc(S(=O)(=O)N3CCC(C(=O)NC4CCCC4)CC3)ccc2N1`, the RP-LC retention time was 761 s.
Take `Cc1ccc(-c2cc(C(N)=O)c3ccccc3n2)cc1`: the RP-LC retention time amounted to 784 s.
With `CC(=O)Nc1ccc(NC(=O)C2CCCN(c3nccnc3Sc3ccc(C)cc3)C2)cc1` (configuration not stated) the figure was 894 s.
`O=c1n(Cc2ccc(F)cc2)nc2c(S(=O)(=O)N3CCc4ccccc4C3)cccn12` came in with an RP-LC retention time of 938 s.
With `COC(=O)C1=CN(c2cc(OC)cc(OC)c2)c2ccccc2S1(=O)=O` the figure was 848 s.
With `Cc1nc(-c2noc(-c3ccc(F)cc3)n2)cn1CC(=O)Nc1cccc(Cl)c1` the figure was 918 s.
In the case of `O=C(Nc1ccc(Cl)cc1)N1CCCC1c1nc(-c2ccccc2)no1` (configuration not stated), the RP-LC retention time was 1040 s.
Consider `Cc1sc(C)c(S(=O)(=O)N2CCN(c3ccccn3)CC2)c1-c1cc(C(F)(F)F)on1`, for which the RP-LC retention time was 887 s.
With `Cc1ccc2c(c1)N(S(C)(=O)=O)CCC(C(=O)NCc1ccco1)O2` (configuration not stated), the RP-LC retention time stood at 793 s.
`CCN(CCNC(=O)c1cc2c(s1)CN(C(C)C)C2)c1cccc(C)c1` had an RP-LC retention time of 573 s.
With `O=S(=O)(NCC(c1cccnc1)c1c[nH]c2ccccc12)c1ccc2c(c1)CCCC2` (configuration not stated) the figure was 790 s; with `CCn1c(=O)n(Cc2cccnc2)c(=O)c2cnc(-c3ccc(OC)cc3)nc21`, 762 s.
With `COc1cccc(NC(=O)CN2C(=O)NC3(CCCCC3)C2=O)c1` the figure was 724 s; with `COc1ccc(C)cc1NC(=O)Cn1nc2c(Oc3ccc(Cl)cc3)nccn2c1=O`, 946 s; with `Cc1cc(C)nc(N2CCN(c3c4c(nc5c(-c6ccccc6)c(C)nn35)CCC4)CC2)n1`, 1210 s.
With `OC1(c2ccccn2)CCOC2(CCN(Cc3c(F)cccc3Cl)CC2)C1` (configuration not stated) the figure was 560 s; with `CCOCCCNC(=O)C(C)n1c(=O)c(C(F)(F)F)nc2cc(C)c(C)cc21` (configuration not stated), 1080 s; with `CCOC(=O)c1cc(S(=O)(=O)NCCC(=O)N2CCN(c3ccccn3)CC2)cn1C`, 601 s.
The molecule `CCCn1ccc2oc(C)c(C(=O)NCc3cc(F)ccc3F)c2c1=O` displayed an RP-LC retention time of 1040 s.
The molecule `Cc1ccc(-c2coc(-c3ccc(NC(=O)NCc4cccc(F)c4)cc3)n2)c(C)c1` gave an RP-LC retention time of 1200 s.
With `Cc1ccc(S(=O)(=O)N2CCCC(c3nnc(CC(C)(C)C)o3)C2)cc1C` (configuration not stated) the figure was 1030 s; with `CCCCc1ccc(NC(=O)Cn2nc3c(Sc4ccccc4)nccn3c2=O)cc1`, 1100 s.
Take `CC1CCN(c2nn(CC(=O)NCc3cccs3)c(=O)c3ccccc23)CC1`: the RP-LC retention time is 1030 s.
For `Cc1ccc(Cl)cc1NS(=O)(=O)c1cc(-c2nc(C(C)C)cs2)cs1`, the RP-LC retention time worked out at 1230 s.
With `CCS(=O)(=O)c1nc2ccc(NS(=O)(=O)c3ccc(OC)c(Cl)c3)cc2s1`, the RP-LC retention time came out at 907 s.
With `CS(=O)(=O)N1CCC(Cc2ccc(C(=O)O)cc2)CC1` the figure was 728 s; with `Cc1ccc(S(=O)(=O)N2CCN(C3CCN(Cc4cccnc4)C3=O)CC2)c(C)c1` (configuration not stated), 610 s; with `O=C(NCc1ccccc1)C(=O)NCC1OCCc2ccccc21` (configuration not stated), 893 s.
With `Cc1sc2ccn(C)c(=O)c2c1C(=O)N1CCN(c2ccc(F)cc2)CC1` the figure was 746 s.
With `COc1cc(Cl)c(CC(=O)c2c[nH]c3ccccc23)cc1OC` the figure was 883 s; with `CC1CN=C2C=C(N3CCN(C(=O)Nc4ccc(C(F)(F)F)cc4)CC3)N=CN21` (configuration not stated), 688 s.
Regarding `CSc1ccc(-c2noc(Cn3c(=O)n(-c4cccc(F)c4)c(=O)c4sccc43)n2)cc1`, the RP-LC retention time came out at 1040 s.

The values above are taken from the METLIN SMRT retention time set (Domingo-Almenara et al. 2019).
